From patent publication US20140274688A1, “MOLECULES HAVING CERTAIN PESTICIDAL UTILITIES, AND INTERMEDIATES, COMPOSITIONS, AND PROCESSES RELATED THERETO” (DOW AGROSCIENCES LLC, priority 2013, published 2014)

Columns and labels:
[1] = tested on: Beet Armyworm (Spodoptera exigua) ("BAW"); assay: Bioassay on Beet Armyworm (BAW), 128-well diet tray assay, percent mortality; assay type: in vivo; details: Spodoptera exigua, read-out: BAW
Procedure, shortened: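 Larvae in covered diet trays held at 25 °C, 14:10 light-dark, for five to seven days. Percent mortality scored per well and averaged over eight wells per treatment.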

[2] = tested on: Cabbage Looper (Trichoplusia ni) ("CL"); assay: Bioassay on Cabbage Looper (CL), 128-well diet tray assay, percent mortality; assay type: in vivo; details: Trichoplusia ni, read-out: CL
Procedure, shortened: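 Larvae held in covered diet trays at 25 °C, 14:10 light-dark, for five to seven days. Percent mortality scored per well and averaged over eight wells.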

Row | Compound | pest or weed control at 50 µg/cm2 [1] [%] | pest or weed control at 50 µg/cm2 [2] [%]
1 | COc1ccc(N2C(=O)CS/C2=N\C(=O)NCCCc2cccc(-c3ncn(-c4ccc(OC(F)(F)F)cc4)n3)c2)c(C)c1 [P131, (Z)-1-(3-(4-methoxy-2-methylphenyl)-4-oxothiazolidin-2-ylidene)-3-(3-(3-(1-(4-(trifluoromethoxy)phenyl)-1H-1,2,4-triazol-3-yl)phenyl)propyl)urea] | 50 to 100 | 50 to 100
2 | CCc1ccccc1N1C(=O)CS/C1=N\C(=O)NCCCCc1ccc(-c2ncn(-c3ccc(OC(F)(F)F)cc3)n2)cc1 [P145, (Z)-1-(3-(2-ethylphenyl)-4-oxothiazolidin-2-ylidene)-3-(4-(4-(1-(4-(trifluoromethoxy)phenyl)-1H-1,2,4-triazol-3-yl)phenyl)butyl)urea] | 50 to 100 | 50 to 100
3 | CC(C)c1ccccc1N1C(=O)CS/C1=N\C(=O)NCCCCc1ccc(-c2ncn(-c3ccc(OC(F)(F)F)cc3)n2)cc1 [P146, (Z)-1-(3-(2-isopropylphenyl)-4-oxothiazolidin-2-ylidene)-3-(4-(4-(1-(4-(trifluoromethoxy)phenyl)-1H-1,2,4-triazol-3-yl)phenyl)butyl)urea] | 50 to 100 | 50 to 100
4 | Cc1ccc(C(C)C)c(N2C(=O)CS/C2=N\C(=O)NCCCCc2ccc(-c3ncn(-c4ccc(OC(F)(F)F)cc4)n3)cc2)c1 [P150, (Z)-1-(3-(2-isopropyl-5-methylphenyl)-4-oxothiazolidin-2-ylidene)-3-(4-(4-(1-(4-(trifluoromethoxy)phenyl)-1H-1,2,4-triazol-3-yl)phenyl)butyl)urea] | 50 to 100 | 50 to 100
5 | CCCc1ccc(C)cc1N1C(=O)CS/C1=N\C(=O)NCCCCc1ccc(-c2ncn(-c3ccc(OC(F)(F)F)cc3)n2)cc1 [P151, (Z)-1-(3-(5-methyl-2-propylphenyl)-4-oxothiazolidin-2-ylidene)-3-(4-(4-(1-(4-(trifluoromethoxy)phenyl)-1H-1,2,4-triazol-3-yl)phenyl)butyl)urea] | 50 to 100 | 50 to 100
6 | CC(C)c1cc(F)ccc1N1C(=O)CS/C1=N\C(=O)NCCCCc1ccc(-c2ncn(-c3ccc(OC(F)(F)F)cc3)n2)cc1 [P155, (Z)-1-(3-(4-fluoro-2-isopropylphenyl)-4-oxothiazolidin-2-ylidene)-3-(4-(4-(1-(4-(trifluoromethoxy)phenyl)-1H-1,2,4-triazol-3-yl)phenyl)butyl)urea] | 50 to 100 | 50 to 100
7 | COc1ccc(C(C)C)c(N2C(=O)CS/C2=N\C(=O)NCCCCc2ccc(-c3ncn(-c4ccc(OC(F)(F)F)cc4)n3)cc2)c1 [P156, (Z)-1-(3-(2-isopropyl-5-methoxyphenyl)-4-oxothiazolidin-2-ylidene)-3-(4-(4-(1-(4-(trifluoromethoxy)phenyl)-1H-1,2,4-triazol-3-yl)phenyl)butyl)urea] | 50 to 100 | 50 to 100
8 | CCc1ccccc1N1C(=O)CS/C1=N\C(=O)NCCCCc1cccc(-c2ncn(-c3ccc(OC(F)(F)F)cc3)n2)c1 [P171, (Z)-1-(3-(2-ethylphenyl)-4-oxothiazolidin-2-ylidene)-3-(4-(3-(1-(4-(trifluoromethoxy)phenyl)-1H-1,2,4-triazol-3-yl)phenyl)butyl)urea] | 50 to 100 | 50 to 100
9 | CC(C)c1ccccc1N1C(=O)CS/C1=N\C(=O)NCCCCc1cccc(-c2ncn(-c3ccc(OC(F)(F)F)cc3)n2)c1 [P172, (Z)-1-(3-(2-isopropylphenyl)-4-oxothiazolidin-2-ylidene)-3-(4-(3-(1-(4-(trifluoromethoxy)phenyl)-1H-1,2,4-triazol-3-yl)phenyl)butyl)urea] | 50 to 100 | 50 to 100
